The test system of assay [1] is DNFB-induced mouse allergic dermatitis model. The assay can be described thus: DNFB-induced mouse allergic dermatitis model. The class given is in vivo. Conditions: BALB/c mice; 10 mg/kg orally one hour before induction; 24th hour after induction; vs vehicle, Student's t-test P<0.05. The protocol: Using increase in the ear swelling rate as an index of exacerbation of symptoms, the effect of the cyclic amine derivative (I) or a pharmacologically acceptable salt thereof in a DNFB-induced mouse allergic dermatitis model was evaluated. The DNFB-induced mouse allergic dermatitis model was prepared by a partially modified method by Curzytek et al. (Pharmacological Reports, 2013, Vol. 65, p. 123′7-1246).
BALB/c mice (female, 6 weeks old) (Charles River Laboratories Japan, Inc.) were used at 7 weeks old after preliminary breeding. To the back of the mice, 25 μL of a 0.5 v/v % DNFB solution dissolved in acetone:olive oil (4:1) was applied. The next day, the same operation was repeated to sensitize the mice. Four days after the sensitization, 10 μL each of a 0.2 v/v % DNFB solution dissolved in acetone:olive oil (4:1) was applied to both sides of the right auricle of the sensitized mice to induce inflammation.
One hour before induction, the compound of Example 20, the compound of Example 29, or the compound of Example 57 was administered at a dose of 10 mg/kg to the mice. The compound of Example 20, the compound of Example 29, and the compound of Example 57 were suspended in a 0.5 w/v % methylcellulose solution and orally administered. The group in which the compound of Example 20 was administered to mice was defined as the Example-20 compound administration group, the group in which the compound of Example 29 was administered was defined as the Example-29 compound administration group, and the group in which the compound of Example 57 was administered was defined as the Example-57 compound administration group. […]
The right ear thickness before application of the DNFB solution (before induction) on the induction day and the right ear thickness at the 24th hour after induction were measured with a digital micrometer (Mitutoyo Corporation). The swelling rate of the auricle was calculated by Formula 3 and used as an index of the drug efficacy evaluation. […]

Assay [2] concerns the target T1, ligand-binding domain of RORγ (RORγ-LBD) (Homo sapiens, UniProt P51449).
T1 construct: purchased Invitrogen
T1 sequence (P51449 269-508 limits assumed): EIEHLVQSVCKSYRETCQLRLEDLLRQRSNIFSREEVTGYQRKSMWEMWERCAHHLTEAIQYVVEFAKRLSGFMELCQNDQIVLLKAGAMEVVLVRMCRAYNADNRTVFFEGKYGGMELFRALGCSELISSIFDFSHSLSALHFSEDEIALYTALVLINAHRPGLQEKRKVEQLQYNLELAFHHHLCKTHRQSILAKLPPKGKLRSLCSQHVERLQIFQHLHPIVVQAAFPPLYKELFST
The assay can be described thus: Inhibitory effect on RORγ-coactivator binding (LanthaScreen TR-FRET RORγ Coactivator Assay). Conditions: at 33 μmol/L of the test compound; read-out: RORγ-coactivator binding inhibition rate (%). The gist of the method:
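TR-FRET: 4 nmol/L GST-RORγ-LBD with compound (1% DMSO) in Coregulator Buffer D plus 5 mmol/L DTT, then 150 nmol/L fluorescein-TRAP220/DRIP-2 and 32 nmol/L Tb-anti-GST antibody; 16–24 hours at room temperature. 520/495 nm ratio (320 nm excitation), background-corrected against control, gives % inhibition of coactivator binding.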
A general note: TR-FRET usually uses a lanthanide donor and a delayed reading to cut background.

For orientation: inhibition means the relative decrease from the control value, in per cent.

Regarding `CC(=O)N1CCCC[C@@H]1C(=O)Nc1ccc(-c2ccccc2OC(F)(F)F)c(Cl)c1` [Example 20, (R)-1-acetyl-N-(2-chloro-2′-(trifluoromethoxy)-[1,1′-biphenyl]-4-yl)piperidine-2-carboxamide], the “ear swelling rate (%)” value in assay [1] was “statistically significantly suppressed”. For the same compound, the inhibition at 33 µM in assay [2] is 101%.
For `CN(CC(=O)N1CCCC[C@@H]1C(=O)Nc1ccc(-c2ccccc2OC(F)(F)F)c(Cl)c1)S(C)(=O)=O` [Example 29, (R)-N-(2-chloro-2′-(trifluoromethoxy)-[1,1′-biphenyl]-4-yl)-1-(2-(N-methylmethylsulfonamide)acetyl)piperidine-2-carboxamide], in assay [1], the “ear swelling rate (%)” value is “statistically significantly suppressed”. The inhibition at 33 µM in assay [2] stood at 101%.
`O=C(Nc1ccc(-c2ccccc2OC(F)(F)F)c(Cl)c1)[C@H]1CCCCN1C(=O)Cn1cnnn1` [Example 57, (R)-1-(2-(1H-tetrazol-1-yl)acetyl)-N-(2-chloro-2′-(trifluoromethoxy)-[1,1′-biphenyl]-4-yl)piperidine-2-carboxamide]: the “ear swelling rate (%)” value in assay [1] is “statistically significantly suppressed”. Besides, the inhibition at 33 µM in assay [2] was 103%.

(Values after patent US10364222B2, “Cyclic amine derivative and medical use thereof” (Toray Industries, Inc., priority 2016, dated 2019).)
